By EC50 is commonly meant the concentration that produces a half-maximal response. The low end stands for an effect from little substance, the high end for a need for much substance.

For 26 molecules, EC50 results are on record in US7825256B2, “Inducible nitric oxide synthase dimerization inhibitors” (Kalypsys, Inc., priority 2004, dated 2010).

This experiment deals with T1, hiNOS (Homo sapiens, UniProt P35228).
T1 construct: expressed in transfected cells; host or cells: HEK293
The experiment is described as follows: DAN assay, hiNOS expressed in transiently transfected HEK293 cells. Format: cell-based. As to conditions: HEK293 cells transiently transfected with hiNOS. An excerpt:
The source of nitric oxide synthase (NOS) enzyme can be generated in several ways including induction of endogenous iNOS using cytokines and/or lipopolysaccharide (LPS) in various cell types known in the art. Alternatively, the gene encoding the enzyme can be cloned and the enzyme can be generated in cells via heterologous expression from a transient or stable expression plasmid with suitable features for protein expression as are known in the art. Enzymatic activity (nitric oxide production) is calcium independent for iNOS, while the constitutive NOS isoforms, nNOS and eNOS, become active with the addition of various cofactors added to cellular media or extract as are well known in the art. Enzymes specified in Table 1 were expressed in HEK293 cells transiently transfected with the indicated NOS isoform.
A major metabolic pathway for nitric oxide is to nitrate and nitrite, which are stable metabolites within tissue culture, tissue, plasma, and urine (S Moncada, A Higgs, N Eng J Med 329, 2002 (1993)).
The level of nitrate or nitrite in the specimen can be quantified by any method known in the art which provides adequate sensitivity and reproducibility. A variety of protocols have also been described for detecting and quantifying nitrite and nitrate levels in biological fluids by ion chromatography (e.g., S A Everett et al., J. Chromatogr. 706, 437 (1995); J M Monaghan et al., J. Chromatogr. 770, 143 (1997)), high-performance liquid chromatography (e.g., M Kelm et al., Cardiovasc. Res. 41, 765 (1999)), and capillary electrophoresis (M A Friedberg et al., J. Chromatogr. 781, 491 (1997)). For example, 2,3-diaminonaphthalene reacts with the nitrosonium cation that forms spontaneously from NO to form the fluorescent product […]. Using 2,3-diaminonaphthalene (“DAN”), researchers have developed a rapid, quantitative fluorometric assay that can detect from 10 nM to 10 μM nitrite and is compatible with a multi-well microplate format. […] DAN reacts with nitrite ion and gives fluorescent […] (M C Carré et al., Analysis 27, 835-838 (1999)). Table 1 provides the test results of various compounds of the subject invention using the DAN assay.
A specimen can be processed prior to determination of nitrate or nitrite as required by the quantification method, or in order to improve the results, or for the convenience of the investigator. For example, processing can involve centrifuging, filtering, or homogenizing the sample. If the sample is whole blood, the blood can be centrifuged to remove cells and the nitrate or nitrite assay performed on the plasma or serum fraction. If the sample is tissue, the tissue can be dispersed or homogenized by any method known in the art prior to determination of nitrate or nitrite. It may be preferable to remove cells and other debris by centrifugation or another method and to determine the nitrate or nitrite level using only the fluid portion of the sample, or the extracellular fluid fraction of the sample. The sample can also be preserved for later determination, for example by freezing of urine or plasma samples. When appropriate, additives may be introduced into the specimen to preserve or improve its characteristics for use in the nitrate or nitrite assay.
The “level” of nitrate, nitrite, or other NO-related product usually refers to the concentration (in moles per liter, micromoles per liter, or other suitable units) of nitrate or nitrite in the specimen, or in the fluid portion of the specimen. However, other units of measure can also be used to express the level of nitrate or nitrite. For example, an absolute amount (in micrograms, milligrams, nanomoles, moles, or other suitable units) can be used, particularly if the amount refers back to a constant amount (e.g., grams, kilograms, milliliters, liters, or other suitable units) of the specimens under consideration. A number of commercially available kits can be used.

For the molecule `c1cn(-c2nsc(N3CCN(Cc4ccc5c(c4)OCO5)CC3)n2)cn1` [Example 33, 1-Benzo[1,3]dioxol-5-ylmethyl-4-(3-imidazol-1-yl-[1,2,4]thiadiazo-5-yl)-piperazine], the concentration for a half-maximal effect (EC50) was below 50 µM. `CN(CCCNS(=O)(=O)c1ccc(OC(F)(F)F)cc1)c1nc(-n2ccnc2)ns1` [Example 34, N-{3-[(3-Imidazol-1-yl-[1,2,4]thiadiazol-5-yl)-methyl-amino]-propyl}-4-trifluoromethoxy-benzenesulfonamide] came in with an EC50 above 50 µM. In the case of `CC(=O)Oc1ccc(CN(CCCN(C)c2nc(-n3ccnc3)ns2)Cc2ccc(OC(C)=O)cc2)cc1` [Example 35, Acetic acid 4-[((4-acetoxy-benzyl)-{3-[(3-imidazol-1-yl-[1,2,4]thiadiazol-5-yl)-methyl-amino]-propyl}-amino)-methyl]-phenyl ester] it was below 1 µM; in that of `CN(CCCN(Cc1ccc(O)cc1)Cc1ccc(O)cc1)c1nc(-n2ccnc2)ns1` [Example 36, N-(3-Imidazol-1-yl-[1,2,4]thiadiazol-5-yl)-N′,N′-bis-(4-hydroxy-benzyl)-N-methyl-propane-1,3-diamine], below 1 µM. With `Cc1cc(C2CCCN2CC(=O)NCc2ccc3c(c2)OCO3)nc(-n2ccnc2)n1` (centres unmarked) [Example 37, N-Benzo[1,3]dioxol-5-ylmethyl-2-[2-(2-imidazol-1-yl-6-methyl-pyrimidin-4-yl)-pyrrolidin-1-yl]-acetamide], the EC50 is below 1 µM. `Cc1cc(C2CCCN2CCNCc2ccc3c(c2)OCO3)nc(-n2ccnc2)n1` (centres unmarked) [Example 39, Benzo[1,3]dioxol-5-ylmethyl-{2-[2-(2-imidazol-1-yl-6-methyl-pyrimidin-4-yl)-pyrrolidin-1-yl]-ethyl}-amine]: the EC50 is below 1 µM. In the case of `CNC(=O)C(CCCNCc1ccc2c(c1)OCO2)c1nc(-n2ccnc2)ns1` (centres unmarked) [Example 40, 5-[(Benzo[1,3]dioxol-5-ylmethyl)-amino]-2-(3-imidazol-1-yl-[1,2,4]thiadiazol-5-yl)-pentanoic acid methylamide] it was below 1 µM; in that of `CCOC(=O)C(NC(=O)CNCc1ccc2c(c1)OCO2)c1cc(C)nc(-n2ccnc2)n1` (centres unmarked) [Example 41, {2-[(Benzo[1,3]dioxol-5-ylmethyl)-amino]-acetylamino}-(2-imidazol-1-yl-6-methyl-pyrimidin-4-yl)-acetic acid ethyl ester], below 1 µM; in that of `CNC(=O)C(NC(=O)CNCc1ccc2c(c1)OCO2)c1cc(C)nc(-n2ccnc2)n1` (centres unmarked) [Example 42, 2-{2-[(Benzo[1,3]dioxol-5-ylmethyl)-amino]-acetylamino}-2-(2-imidazol-1-yl-6-methyl-pyrimidin-4-yl)-N-methyl-acetamide], below 1 µM. Consider `Cc1cc(C(C)NCCOCc2ccc3c(c2)OCO3)nc(-n2ccnc2)n1` (centres unmarked) [Example 43, [2-(Benzo[1,3]dioxol-5-ylmethoxy)-ethyl]-[1-(2-imidazol-1-yl-6-methyl-pyrimidin-4-yl)-ethyl]-amine], for which the EC50 was below 1 µM. The molecule `Cc1cc(C(C)NCCNC(C)c2ccc3c(c2)OCO3)nc(-n2ccnc2)n1` (centres unmarked) [Example 44, N-(1-Benzo[1,3]dioxol-5-yl-ethyl)-N′-[1-(2-imidazol-1-yl-6-methyl-pyrimidin-4-yl)-ethyl]-ethane-1,2-diamine] came in with an EC50 below 1 µM. With `Cc1cc(C(C)NCCNCc2ccc3c(c2)OCCO3)nc(-n2ccnc2)n1` (centres unmarked) [Example 45, N-(2,3-Dihydro-benzo[1,4]dioxin-6-ylmethyl)-N′-[1-(2-imidazol-1-yl-6-methyl-pyrimidin-4-yl)-ethyl]-ethane-1,2-diamine], the EC50 is below 1 µM.

In turn, `CN(CC1CCN(Cc2ccc3c(c2)OCO3)C1)c1nc(-n2ccnc2)ns1` (centres unmarked) [Example 46, (1-Benzo[1,3]dioxol-5-ylmethyl-pyrrolidin-3-ylmethyl)-(3-imidazol-1-yl-[1,2,4]thiadiazol-5-yl)-methyl-amine] returned a 50% effective concentration (EC50) below 1 µM.

As to `CN(CCNCc1ccc2c(c1)OCO2)c1nc(-n2ccnc2)ns1` [Example 47, N′-Benzo[1,3]dioxol-5-ylmethyl-N-(3-imidazol-1-yl-[1,2,4]thiadiazol-5-yl)-N-methyl-ethane-1,2-diamine], the EC50 is below 1 µM. In the case of `CN(CCCCNCc1ccc2c(c1)OCO2)c1nc(-n2ccnc2)ns1` [Example 48, N′-Benzo[1,3]dioxol-5-ylmethyl-N-(3-imidazol-1-yl-[1,2,4]thiadiazol-5-yl)-N-methyl-butane-1,4-diamine], the EC50 is below 1 µM. As for `NCCCN(Cc1nccs1)c1nc(-n2ccnc2)ns1` [Example 52, N′-(3-Imidazol-1-yl-[1,2,4]thiadiazol-5-yl)-N′-thiazol-2-ylmethyl-propane-1,3-diamine], the figure is below 1 µM; as for `CCOC(=O)CN(CCCNCc1ccc2c(c1)OCO2)c1nc(-n2ccnc2)ns1` [Example 53, [{3-[(Benzo[1,3]dioxol-5-ylmethyl)-amino]-propyl}-(3-imidazol-1-yl-[1,2,4]thiadiazol-5-yl)-amino]-acetic acid ethyl ester], below 1 µM. In the case of `NC(=O)CN(CCCNCc1ccc2c(c1)OCO2)c1nc(-n2ccnc2)ns1` [Example 54, 2-[{3-[(Benzo[1,3]dioxol-5-ylmethyl)-amino]-propyl}-(3-imidazol-1-yl-[1,2,4]thiadiazol-5-yl)-amino]-acetamide] it was below 1 µM; in that of `O=C(O)CN(CCCNCc1ccc2c(c1)OCO2)c1nc(-n2ccnc2)ns1` [Example 55, [{3-[(Benzo[1,3]dioxol-5-ylmethyl)-amino]-propyl}-(3-imidazol-1-yl-[1,2,4]thiadiazol-5-yl)-amino]-acetic acid], below 50 µM. In the case of `CNC(=O)CN(CCCNCc1ccc2c(c1)OCO2)c1nc(-n2ccnc2)ns1` [Example 56, 2-[{3-[(Benzo[1,3]dioxol-5-ylmethyl)-amino]-propyl}-(3-imidazol-1-yl-[1,2,4]thiadiazol-5-yl)-amino]-N-methyl-acetamide] it was below 1 µM; in that of `CN(C)C(=O)CN(CCCNCc1ccc2c(c1)OCO2)c1nc(-n2ccnc2)ns1` [Example 57, 2-[{3-[(Benzo[1,3]dioxol-5-ylmethyl)-amino]-propyl}-(3-imidazol-1-yl-[1,2,4]thiadiazol-5-yl)-amino]-N,N-dimethyl-acetamide], below 1 µM. With `CCOC(=O)CN(CCCN(C)Cc1ccc2c(c1)OCO2)c1nc(-n2ccnc2)ns1` [Example 58, [[3-(Benzo[1,3]dioxol-5-ylmethyl-methyl-amino)-propyl]-(3-imidazol-1-yl-[1,2,4]thiadiazol-5-yl)-amino]-acetic acid ethyl ester], the EC50 is below 1 µM. As for `N#CCN(CCCNCc1ccc2c(c1)OCO2)c1nc(-n2ccnc2)ns1` [Example 60, [{3-[(Benzo[1,3]dioxol-5-ylmethyl)-amino]-propyl}-(3-imidazol-1-yl-[1,2,4]thiadiazol-5-yl)-amino]-acetonitrile], the figure is below 1 µM; as for `c1cn(-c2nsc(N(CCCNCc3ccc4c(c3)OCO4)Cc3nnn[nH]3)n2)cn1` [Example 61, N′-Benzo[1,3]dioxol-5-ylmethyl-N-(3-imidazol-1-yl-[1,2,4]thiadiazol-5-yl)-N-(1H-tetrazol-5-ylmethyl)-propane-1,3-diamine], below 1 µM. As for `CNNC(=N)CN(CCCNCc1ccc2c(c1)OCO2)c1nc(-n2ccnc2)ns1` [Example 62, 2-[{3-[(Benzo[1,3]dioxol-5-ylmethyl)-amino]-propyl}-(3-imidazol-1-yl-[1,2,4]thiadiazol-5-yl)-amino]-acetamidine N′-methyl-hydrazide], the figure is below 1 µM; as for `N=C(CN(CCCNCc1ccc2c(c1)OCO2)c1nc(-n2ccnc2)ns1)NO` [Example 63, 2-[{3-[(Benzo[1,3]dioxol-5-ylmethyl)-amino]-propyl}-(3-imidazol-1-yl-[1,2,4]thiadiazol-5-yl)-amino]-N-hydroxy-acetamidine], below 1 µM.
